This is an account of results in BindingDB's records for doi:10.1021/jm8005433 (A* Star, 2008).

The structures appear in SMILES notation. Where only a bound is given, the exact number is not on record here.

Bcl-2-like protein 1, sequence (Q07817 whole entry): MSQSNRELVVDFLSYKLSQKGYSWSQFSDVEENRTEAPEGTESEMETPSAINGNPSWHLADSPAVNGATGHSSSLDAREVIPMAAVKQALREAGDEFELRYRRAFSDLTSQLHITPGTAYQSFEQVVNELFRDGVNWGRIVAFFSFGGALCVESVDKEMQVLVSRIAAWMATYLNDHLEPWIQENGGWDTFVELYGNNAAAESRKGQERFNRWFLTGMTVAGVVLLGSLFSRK

This assay addresses Bcl-2-like protein 1 (Homo sapiens, UniProt Q07817). Nature of the assay: Fluorescence Polarization Assay. The note with it: pH 8; 22 °C. As for the experimental part:
In the fluorescence polarization assay, the Bcl-XL protein is incubated with a fluorescein-tagged Bak-BH3 peptide. The Bcl-XL:Bak-BH3 peptide complex is then titrated with the test compounds, and the displacement of the Bak-BH3 peptide is measured as a function of decreasing polarized fluorescence. The fluorescence polarization values were determined using a Tecan GeniosPro plate reader using the excitation/emission wavelengths 485/535 nm. The binding affinities are reported as the inhibitory concentration of the titrant required to displace 50% of the Bak-BH3 peptide (IC50).
For orientation: Fluorescence polarisation rises when a labelled molecule tumbles more slowly, as on binding a larger partner.
As usually defined, the IC50 is the concentration that gives 50% inhibition. For the molecule `Cn1cc2c(=O)c(O)ccc-2c2cc(CO)ccc21` [7,8-dihydroxy-2-(hydroxymethyl)-5-methylphenanthridin-5-ium chloride], the IC50 was 20 µM. As to `COc1ccc2c(c[n+]([O-])c3ccccc23)c1OC` [7,8-dimethoxy-5-oxidophenanthridin-5-ium], the IC50 was greater than 100 µM. Regarding `C[n+]1cc2c3c(ccc2c2cc(CCO)ccc21)OCO3` [4-(2-hydroxyethyl)-8-methyl-12,14-dioxa-8-azatetracyclo[8.7.0.0^{2,7}.0^{11,15}]heptadeca-1(10),2(7),3,5,8,11(15),16-heptaen-8-ium chloride], inhibition was half-maximal at 3 µM (IC50).

With `COCc1ccc2c(c1)c1ccc3c(c1c[n+]2C)OCO3` [4-(methoxymethyl)-8-methyl-12,14-dioxa-8-azatetracyclo[8.7.0.0^{2,7}.0^{11,15}]heptadeca-1(10),2(7),3,5,8,11(15),16-heptaen-8-ium chloride], the IC50 stood at 11 µM. The molecule `C[n+]1cc2c3c(ccc2c2cc(CO)ccc21)OCO3` [4-(hydroxymethyl)-8-methyl-12,14-dioxa-8-azatetracyclo[8.7.0.0^{2,7}.0^{11,15}]heptadeca-1(10),2(7),3,5,8,11(15),16-heptaen-8-ium chloride] returned an IC50 of 11 µM. Under `Cn1cc2c(=O)c(O)ccc-2c2cc(CCO)ccc21` [7,8-dihydroxy-2-(2-hydroxyethyl)-5-methylphenanthridin-5-ium chloride] stands 22 µM; under `COc1ccc2c(c[n+](C)c3c4cc5c(cc4ccc23)OCO5)c1OC`, 100 µM.

`COc1ccc2c(c[n+](C)c3ccccc23)c1OC` [7,8-dimethoxy-5-methylphenanthridin-5-ium iodide] gave an IC50 greater than 100 µM. Under `CC1(C)Oc2ccc3c(c[n+]([O-])c4ccccc34)c2O1` [13,13-dimethyl-8-oxido-12,14-dioxa-8-azatetracyclo[8.7.0.0^{2,7}.0^{11,15}]heptadeca-1(10),2(7),3,5,8,11(15),16-heptaen-8-ium] stands greater than 100 µM; under `COCCc1ccc2c(c1)c1ccc3c(c1c[n+]2C)OCO3` [4-(2-methoxyethyl)-8-methyl-12,14-dioxa-8-azatetracyclo[8.7.0.0^{2,7}.0^{11,15}]heptadeca-1(10),2(7),3,5,8,11(15),16-heptaen-8-ium chloride], 6 µM; under `COc1ccc2c(c[n+](C)c3ccc(CO)cc23)c1OC` [2-(hydroxymethyl)-7,8-dimethoxy-5-methylphenanthridin-5-ium chloride], greater than 100 µM. For `C[n+]1cc2c3c(ccc2c2ccccc21)OCO3` [8-methyl-12,14-dioxa-8-azatetracyclo[8.7.0.0^{2,7}.0^{11,15}]heptadeca-1(10),2(7),3,5,8,11(15),16-heptaen-8-ium iodide] the value was 12 µM; for `C[n+]1cc2c3c(ccc2c2ccc4cc5c(cc4c21)OCO5)OCO3`, 19 µM; for `Cn1cc2c(=O)c(O)ccc-2c2ccccc21` [7,8-dihydroxy-5-methylphenanthridin-5-ium chloride], 18 µM.

Regarding `[O-][n+]1cc2c3c(ccc2c2ccccc21)OCO3` [8-oxido-12,14-dioxa-8-azatetracyclo[8.7.0.0^{2,7}.0^{11,15}]heptadeca-1(10),2(7),3,5,8,11(15),16-heptaen-8-ium], the IC50 was greater than 100 µM. Regarding `C[n+]1cc2c3c(ccc2c2ccccc21)OC(C)(C)O3` [8,13,13-trimethyl-12,14-dioxa-8-azatetracyclo[8.7.0.0^{2,7}.0^{11,15}]heptadeca-1(10),2(7),3,5,8,11(15),16-heptaen-8-ium iodide], the IC50 was greater than 100 µM.
